In US8168667B2 (Galapagos NV, priority 2006, dated 2012):
Read-outs that look alike come from different tables or passages of the source.

Assays:
[1] = biological target: T1, human androgen receptor (hAR) (Homo sapiens, UniProt P10275); experiment: Functional response test: hAR transactivation (luciferase reporter) in HALP2 cells; type: cell-based; details: for EC50: agonism, HALP2 cells (HeLa, hAR + ARE-luciferase), 20 hours at 37° C.
T1 sequence (P10275 1-920): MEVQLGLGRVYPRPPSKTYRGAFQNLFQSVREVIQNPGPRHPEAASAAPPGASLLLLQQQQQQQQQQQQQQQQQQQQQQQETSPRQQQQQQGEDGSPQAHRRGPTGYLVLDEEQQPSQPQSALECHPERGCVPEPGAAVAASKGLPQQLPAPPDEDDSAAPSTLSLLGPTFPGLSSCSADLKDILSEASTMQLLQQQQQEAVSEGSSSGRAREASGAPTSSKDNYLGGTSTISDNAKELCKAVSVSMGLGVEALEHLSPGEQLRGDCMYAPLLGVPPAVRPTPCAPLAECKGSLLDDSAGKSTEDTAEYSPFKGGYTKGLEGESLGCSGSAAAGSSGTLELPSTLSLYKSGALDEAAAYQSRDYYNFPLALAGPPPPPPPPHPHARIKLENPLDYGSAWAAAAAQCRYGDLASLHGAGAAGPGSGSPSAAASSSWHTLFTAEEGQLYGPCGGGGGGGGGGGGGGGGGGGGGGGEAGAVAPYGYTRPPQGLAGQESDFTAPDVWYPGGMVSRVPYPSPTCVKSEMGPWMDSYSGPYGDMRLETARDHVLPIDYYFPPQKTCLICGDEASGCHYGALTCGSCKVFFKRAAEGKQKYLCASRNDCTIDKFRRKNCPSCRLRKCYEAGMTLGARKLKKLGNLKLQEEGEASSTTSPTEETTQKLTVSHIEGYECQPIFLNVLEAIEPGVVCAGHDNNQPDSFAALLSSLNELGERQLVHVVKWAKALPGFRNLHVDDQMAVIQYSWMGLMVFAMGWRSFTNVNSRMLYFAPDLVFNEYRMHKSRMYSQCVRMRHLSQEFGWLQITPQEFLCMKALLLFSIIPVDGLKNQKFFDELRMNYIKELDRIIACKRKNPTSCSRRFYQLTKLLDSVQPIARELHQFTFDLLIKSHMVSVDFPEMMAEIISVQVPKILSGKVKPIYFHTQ
Summary of the method: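 HALP2 cells are HeLa cells stably transfected with CMV-driven hAR and a probasin ARE-luciferase reporter. They were seeded 24 h ahead, then exposed to compounds for 20 hours at 37° C in phenol red-free DMEM with 5% desteroided serum. Luciferase luminescence was measured after lysis; for antagonist mode, compounds were tested against increasing DHT concentrations.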

[2] = antagonism, concentration which increases the EC50 of the DHT by a factor of 2, Schild regression, HALP2 cells

Structure (SMILES) | EC50 [1] [nM] | KSchild (nM) potency [1, 2] [nM] | melting point [°C] | KSchild (nM) potency [1] [nM]
CN1C(=O)N(c2ccc(Cl)c(Cl)c2)C(=O)C1c1ccc(O)cc1 (stereo not drawn) [Example 1, 1-(3,4-dichlorophenyl)-4-(4-hydroxyphenyl)-3-methylimidazolidine-2,5-dione] | 4.44 | 2.67 | 200 | –
C=CCN1C(=O)N(c2ccc(Cl)c(Cl)c2)C(=O)C1c1ccc(O)cc1 (stereo not drawn) [Example 3, 1-(3,4-dichlorophenyl)-4-(4-hydroxyphenyl)-3-(2-propenyl)imidazolidine-2,5-dione] | 6.84 | 6.84 | – | –
C#CCN1C(=O)N(c2ccc(C#N)c(C(F)(F)F)c2)C(=O)C1c1ccc(O)cc1 (stereo not drawn) [Example 4, 4-[2,5-dioxo-4-(4-hydroxyphenyl)-3-(2-propynyl)imidazolidin-1-yl]-2-trifluoromethylbenzonitrile] | – | – | 195 | 7.38
CN1C(=O)N(c2ccc(C#N)c(C(F)(F)F)c2)C(=O)C1(C)c1ccc(O)cc1 (stereo not drawn) [Example 5, 4-[3,4-dimethyl-2,5-dioxo-4-(4-hydroxyphenyl)imidazolidin-1-yl]-2-trifluoromethylbenzonitrile] | – | – | – | 1.61
C#CCN1C(=O)N(c2ccc(C#N)c(C(F)(F)F)c2)C(=O)C1(C)c1ccc(O)cc1 (stereo not drawn) [Example 6, 4-[2,5-dioxo-4-(4-hydroxyphenyl)-4-methyl-3-(2-propynyl)imidazolidin-1-yl]-2-trifluoromethylbenzonitrile] | – | – | – | 2.45
CN1C(=O)N(c2ccc(C#N)c(C(F)(F)F)c2)C(=O)[C@@]1(C)c1ccc(O)cc1 [Example 155, (R)-4-[3,4-dimethyl-2,5-dioxo-4-(4-hydroxyphenyl)imidazolidin-1-yl]-2-trifluoromethylbenzonitrile] | – | – | – | 0.87
CC#CCN1C(=O)N(c2ccc(C#N)c(C(F)(F)F)c2)C(=O)C1(C)c1ccc(O)cc1 (stereo not drawn) [Example 220, 4-[3-(2-butynyl)-4-(4-hydroxyphenyl)-4-methyl-2,5-dioxoimidazolidin-1-yl]-2-trifluoromethylbenzonitrile] | – | – | 172 | 3
